# Reference: patent US20020006955A1, “Ginkgolides for inhibition of membrane expression of benzodiazepine receptors” (priority 1995, published 2002)
# How the values were obtained:
# aldosterone = assay: Serum aldosterone by radioimmunoassay in treated rats; type: in vivo, Sprague-Dawley rats; details: 2 mg/kg intraperitoneally once daily for eight days; for ALDOS-STERONE: serum, control 685
# Description: (§1) In each experiment, at least six rats per treatment group were used. After eight days of treatment, the rats were sacrificed.
# (§2) The level of steroids in the rats was measured by radioimmunoassay from organic extracts of the collected serum. The levels of corticosterone (a glucocorticoid in rats) and testosterone were measured by radioimmunoassay using antibodies from Endocrine Sciences (Tarlana, Calif., USA) under conditions described by the supplier. The level of plasma ACTH was measured by radioimmunoassay using the method of Crousos, et al., New Engl. J. Med. 310:622 (1984). The level of aldosterone was measured by radioimmunoassay using a kit from Diagnostics Products Corp. (Los Angeles, Calif., USA).
# testosterone = assay: Serum testosterone by radioimmunoassay in treated rats; type: in vivo, Sprague-Dawley rats; details: 2 mg/kg intraperitoneally once daily for eight days; for TESTOSTERONE: serum, control 4.50
# Description: as §1, §2
# [1] = biological target: 18 Kd peripheral benzodiazepine receptor protein; assay: Benzodiazepine radioligand binding assay ([3H]PK 11195) in adrenal mitochondria; design: species or system rat
# Description: See, Garnier, et al., Endocrinology 132:444 (1993). Mitochondria were prepared as described in Krueger, et al., J. Biol. Chem. 265:15015 (1990). Mitochondria ([…] of protein) were resuspended in phosphate buffered saline (PBS) and [^3H]PK 11195 (New England Nuclear, Wilmington, Del., USA). Binding studies were performed at 4° C. in a final incubation volume of 0.3 ml, using radioligand in the concentration range of 0.019-20.00 nM and 200 fold excess of unlabeled PK 11195 (Research Biochemicals, Natick, Mass., USA), as described in Garnier, et al., Endocrinology 132:444 (1993) and Garnier, et al., Mol. Pharm. 45:201 (1994). After 120 min. incubation time, the assay was stopped by filtration through Whatman GF/C filters and washed with 15 ml ice-cold PBS. Radioactivity trapped on the filters were determined by liquid scintillation counting at 50% counting efficiency. The dissociation constant (Kd) and the number of binding sites (Bmax) were determined by […] analysis of the data using the ligand™ program (Kell, V.4.0, Biosoft, Inc.). See Munson, et al., Anal. Biochem. 107:220 (1980).
# [2] = tested on: corticosterone (a glucocorticoid in rats); assay: Assay for determining the inhibition of glucocorticoids: serum corticosterone by radioimmunoassay; type: in vivo, Sprague-Dawley rats; details: 2 mg/kg intraperitoneally once daily for eight days; for CORTICOSTERONE: serum, control 161
# Description: as §1, §2
# plasma ACTH = assay: Plasma ACTH by radioimmunoassay in treated rats; type: in vivo, Sprague-Dawley rats; details: 2 mg/kg intraperitoneally once daily for eight days; for ACTH: plasma, control 28.0
# Description: as §1, §2
# [3] = tested on: peripheral benzodiazepine receptor mRNA; assay: mRNA expression of benzodiazepine receptor in adrenal tissue (RNA blot, PBR cDNA probe); design: species or system rat; details: adrenal tissue total RNA, densiometric analysis
# Description: mRNA Expression of Benzodiazepine Receptor The ginkgolide induced decrease in mRNA expression of the benzodiazepine receptor was also confirmed. Total cellular RNA from adrenal tissue was isolated by the acid guanidinium thiocyanate-phenol-chloroform extraction method (Chomczynski, et al., Anal. Biochem. 162:156-159 (1987)) using the RNAzol B reagent (Tel-Test Inc., Friendswood, Texas, USA). RNA electrophoresis transfer, probe labelling, and membrane hybridization were performed as previously described in Dym, et al., Endocrinology 128:1167-1176 (1991). RNA was size-fractionated by electrophoresis and transferred to derivatized nylon membranes (Nytran Plus, Schleicher & Schuell, Keene, New Hampshire, USA). The blots were then hybridized against the [^32p] cDNA probe for PBR labelled by the random priming technique. The 781 base-pair probe for PBR mRNA used was prepared as previously described in Garnier, et al., Endocrinology 132:444-458 (1993). Screen enhanced autoradiography was performed by exposing Kodak X-OMAT AR films to the blots at −80° C for 48 hours. Densiometric analysis of the spots was performed as described above.
SMILES,effect on serum levels of aldosterone (aldosterone),ALDOS-STERONE (aldosterone) [pg/mL],effect on serum levels of testosterone (testosterone),TESTOSTERONE (testosterone) [ng/mL],"Kd ([1]; dissociation constant of radioligand [3H]PK 11195 in adrenal mitochondria after treatment with the substance, 4° C., 120 min, control 1.7) [nM]","decrease of expression of the 18 Kd peripheral benzodiazepine receptor protein ([1]; from Bmax versus control, adrenal mitochondria) [%]","Bmax ([1]; number of [3H]PK 11195 binding sites in adrenal mitochondria after treatment with the substance, control 11.2) [pmol/mg]",effect on the level of corticosterone in the rats [2],CORTICOSTERONE [2] [ng/mL],effect on ACTH release (plasma ACTH),ACTH (plasma ACTH) [pg/mL],reduction of peripheral benzodiazepine receptor mRNA expression [3] [%]
"C[C@@H]1C(=O)O[C@H]2C[C@@]34[C@H]5C[C@@H](C(C)(C)C)[C@]36[C@@H](OC(=O)[C@@H]6O)O[C@@]4(C(=O)O5)[C@]21O [Ginkgolide A, ginkgolide A]",unaffected,638,unaffected,4.75,1.3,50,5.6,decrease,66,increase ACTH release,103,
"CC1C(=O)OC2C(O)C34C5CC(C(C)(C)C)C36C(OC(=O)C6O)OC4(C(=O)O5)C12O (centres unmarked) [Ginkgolide B, ginkgolide B]",unaffected,893,unaffected,4.50,,,,decrease,75,increase ACTH release,71.4,85
